Test results as given in publication PMC10648349, “Aromatic Diboronic Acids as Effective KPC/AmpC Inhibitors” (Molecules, 2023).
≈ marks a conversion by molar mass, not a printed value.

Assays:
[1] = test system: P. aeruginosa MUW 700 cAmpC-positive; assay: checkerboard microdilution, antibiotic plus tested agent; format: cell-based, Pseudomonas aeruginosa
Outline: (§1)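 Read-out is the antibiotic MIC with agent present, plus FICI = combined/alone MIC ratios summed for both partners. Meropenem pairs served for carbapenemase strains and ceftazidime pairs for the AmpC strain. Agent or PBA was tested at 4–16 mg/L.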

[2] = test system: K. pneumoniae ATCC BAA 1705 KPC-2-positive; assay: combination disc test CDT-KPC; format: cell-based; conditions: Klebsiella pneumoniae, BAA1705, read-out: Diameter of inhibition zone, MEM-10 disc with agent; for zone of inhibition at 100 µg/disc: agent 0.1 mg per disc; for zone of inhibition at 300 µg/disc: agent 0.3 mg per disc
[3] = test system: B. subtilis ATCC 6633; assay: direct antimicrobial activity (disc-diffusion); format: cell-based; conditions: Bacillus subtilis, ATCC6633; 0.4 mg per disc, 9 mm disc (linezolid 0.03 mg, 6 mm disc); - no zone; read-out: Diameter of inhibition zone
Outline: (§2)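 EUCAST/CLSI methods: disc diffusion at 0.4 mg compound/disc, broth MIC, then MBC (bacteria) or MFC (yeast). DMSO vehicle.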

[4] = test system: C. krusei ATCC 6258; assay: antifungal activity (disc-diffusion, MIC, MFC); format: cell-based, Candida krusei; conditions: Pichia kudriavzevii, ATCC6258; for MIC: fluconazole by Etest
Outline: as §2

[5] = MTT-based viability assay; format: cell-based; conditions: human, MRC-5 human fibroblasts, 72 h, read-out: Viability of MRC-5 cells (% of viable cells ± SD)
Outline: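 Percent viable cells relative to control, measured in triplicate by MTT read-out at 570 nm. Cells: MRC-5 human fibroblasts cultured at 37 °C, 5% CO2 in MEME plus 10% FBS.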

[6] = test system: E. coli 77 CMY-2-positive; assay: checkerboard microdilution, antibiotic plus tested agent; format: cell-based, Escherichia coli
Outline: as §1

[7] = test system: P. aeruginosa MUW 700 cAmpC-positive; assay: combination disc test CDT-AmpC; format: cell-based; conditions: Pseudomonas aeruginosa, read-out: Diameter of inhibition zone, CAZ-30 disc with agent; for zone of inhibition at 100 µg/disc: agent 0.1 mg per disc
[8] = test system: P. aeruginosa MUW 700 AmpC(+); assay: MIC of tested agent alone, microdilution; format: cell-based; conditions: Pseudomonas aeruginosa; read-out: MIC of agent alone
Outline: (§3)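 Two-fold checkerboard dilutions pair β-lactams (1–64 mg/L) with tested agents (4–16 mg/L); agent MICs alone come from parallel microdilution.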

[9] = test system: E. coli 76 KPC-2(+); assay: MIC of tested agent alone, microdilution; format: cell-based; conditions: Escherichia coli; read-out: MIC of agent alone
Outline: as §3

[10] = test system: K. pneumoniae ATCC BAA-1705 KPC-2(+); assay: MIC of tested agent alone, microdilution; format: cell-based; conditions: Klebsiella pneumoniae, ATCCBAA1705; read-out: MIC of agent alone
Outline: as §3

[11] = test system: K. pneumoniae 81 KPC-3(+); assay: MIC of tested agent alone, microdilution; format: cell-based; conditions: Klebsiella pneumoniae; read-out: MIC of agent alone
Outline: as §3

[12] = test system: E. coli 77 CMY-2(+); assay: MIC of tested agent alone, microdilution; format: cell-based; conditions: Escherichia coli; read-out: MIC of agent alone
Outline: as §3

[13] = test system: K. pneumoniae 83 KPC-3(+), CTX-M-3(+); assay: MIC of tested agent alone, microdilution; format: cell-based; conditions: Klebsiella pneumoniae; read-out: MIC of agent alone
Outline: as §3

[14] = test system: E. faecalis ATCC 29212; assay: direct antimicrobial activity (disc-diffusion, MIC, MBC); format: cell-based; conditions: Enterococcus faecalis, ATCC29212
Outline: as §2

[15] = test system: S. aureus ATCC 6538P; assay: as above; format: cell-based; conditions: Staphylococcus aureus, ATCC6538P; for zone of inhibition at 0.4 mg/disc: 0.4 mg per disc, 9 mm disc (linezolid 0.03 mg, 6 mm disc), - no zone, read-out: Diameter of inhibition zone
Outline: as §2

[16] = test system: S. aureus ATCC 43300 MRSA; assay: as above; format: cell-based; conditions: Staphylococcus aureus; for zone of inhibition at 0.4 mg/disc: 0.4 mg per disc, 9 mm disc (linezolid 0.03 mg, 6 mm disc), - no zone, read-out: Diameter of inhibition zone
Outline: as §2

[17] = test system: E. faecium ATCC 6057; assay: as above; format: cell-based; conditions: Enterococcus faecium, ATCC6057; for zone of inhibition at 0.4 mg/disc: 0.4 mg per disc, 9 mm disc (linezolid 0.03 mg, 6 mm disc), - no zone, read-out: Diameter of inhibition zone
Outline: as §2

[18] = test system: S. epidermidis ATCC 12228; assay: as above; format: cell-based; conditions: Staphylococcus epidermidis, ATCC12228; for zone of inhibition at 0.4 mg/disc: 0.4 mg per disc, 9 mm disc (linezolid 0.03 mg, 6 mm disc), - no zone, read-out: Diameter of inhibition zone
Outline: as §2

[19] = test system: K. pneumoniae ATCC 700603 ESBL-positive; assay: combination disc test CDT-ESBL; format: cell-based; conditions: Klebsiella pneumoniae, ATCC700603, read-out: Diameter of inhibition zone, CAZ-30 disc with agent; for zone of inhibition at 100 µg/disc: agent 0.1 mg per disc; for zone of inhibition at 300 µg/disc: agent 0.3 mg per disc

| Structure (SMILES) | Average FICI with ceftazidime [1] | Interpretation of the average FICI with ceftazidime [1] | Interpretation of the lowest FICI with ceftazidime [1] | The lowest FICI with ceftazidime [1] | zone of inhibition at 0.4 mg/disc [3] [mm] | MIC [4] [µg/mL] | Average FICI with ceftazidime [6] | The lowest FICI with ceftazidime [6] | MIC [8] [µg/mL] | MIC [9] [µg/mL] | MIC [10] [µg/mL] | MIC [11] [µg/mL] | MIC [12] [µg/mL] | MIC [13] [µg/mL] | MIC [14] [µg/mL] | MIC [15] [µg/mL] | MIC [16] [µg/mL] | MIC [17] [µg/mL] | MIC [18] [µg/mL] | zone of inhibition at 0.4 mg/disc [18] [mm] | further results |
| --- | --- | --- | --- | --- | --- | --- | --- | --- | --- | --- | --- | --- | --- | --- | --- | --- | --- | --- | --- | --- | --- |
| OB(O)c1cc(F)c(B(O)O)c(F)c1 [1d] | 0.43 | S (FICI ≤ 0.5, synergy) | S (FICI ≤ 0.5, synergy) | 0.27 | 15 | 200 (≈ 991 µM) | 0.23 | 0.17 | > 400 | 400 | 400 | 400 | 400 | 400 | > 400 | 25 (≈ 124 µM) | 200 (≈ 991 µM) | > 400 | 25 (≈ 124 µM) | 21 | zone of inhibition at 100 µg/disc [2]: 12 mm; viability at 72 h, 12.5 mg/L [5]: 111.6 ± 1.1%; viability at 72 h, 25 mg/L [5]: 104 ± 8.9%; viability at 72 h, 50 mg/L [5]: 83.3 ± 1.2%; zone of inhibition at 100 µg/disc [7]: 17 mm; zone of inhibition at 100 µg/disc [19]: 14 mm |
| OB(O)c1ccc(B(O)O)c(F)c1 [1b] | 0.18 | S (FICI ≤ 0.5, synergy) | S (FICI ≤ 0.5, synergy) | 0.14 | 23 | 100 (≈ 544 µM) | 0.17 | 0.10 | > 400 | 400 | > 400 | > 400 | 400 | > 400 | 200 (≈ 1090 µM) | 25 (≈ 136 µM) | 100 (≈ 544 µM) | 200 (≈ 1090 µM) | 100 (≈ 544 µM) | 17 | zone of inhibition at 100 µg/disc [2]: 11 mm; zone of inhibition at 0.4 mg/disc ([4]; 0.4 mg per disc, 9 mm disc (fluconazole 0.025 mg, 6 mm disc), - no zone, read-out: Diameter of inhibition zone): 22 mm; viability at 72 h, 12.5 mg/L [5]: 140 ± 6.7%; viability at 72 h, 25 mg/L [5]: 140 ± 8.3%; viability at 72 h, 50 mg/L [5]: 117 ± 1.3%; zone of inhibition at 100 µg/disc [7]: 20 mm; zone of inhibition at 0.4 mg/disc [15]: 14 mm; zone of inhibition at 0.4 mg/disc [16]: 13 mm; zone of inhibition at 100 µg/disc [19]: 15 mm |
| OB(O)c1ccccc1B(O)O [3a, phenylene-1,2-diboronic acid] | 0.61 | I (0.5 < FICI ≤ 4, indifference) | S (FICI ≤ 0.5, synergy) | 0.29 | 24 | 400 (≈ 2410 µM) | 0.44 | 0.29 | 400 | 400 | 400 | 400 | 400 | 400 | 400 (≈ 2410 µM) | 200 (≈ 1210 µM) | 400 (≈ 2410 µM) | 50 (≈ 302 µM) | 200 (≈ 1210 µM) | 20 | zone of inhibition at 300 µg/disc [2]: 17 mm; viability at 72 h, 16 mg/L ([5]; 16 mg/L): 110 ± 9.3%; viability at 72 h, 32 mg/L ([5]; 32 mg/L): 106 ± 10.6%; viability at 72 h, 64 mg/L ([5]; 64 mg/L): 76.2 ± 4.2%; zone of inhibition at 300 µg/disc ([7]; agent 0.3 mg per disc): 22 mm; zone of inhibition at 0.4 mg/disc [17]: 16 mm; zone of inhibition at 300 µg/disc [19]: 18 mm |
| OB(O)c1cc(F)cc(B(O)O)c1 [2b] | 0.35 | S (FICI ≤ 0.5, synergy) | S (FICI ≤ 0.5, synergy) | 0.26 | 17 | > 400 | 0.17 | 0.10 | > 400 | 400 | > 400 | > 400 | 400 | > 400 | 400 (≈ 2180 µM) | 100 (≈ 544 µM) | 400 (≈ 2180 µM) | 400 (≈ 2180 µM) | 50 (≈ 272 µM) | 19 | zone of inhibition at 300 µg/disc [2]: 19 mm; viability at 72 h, 12.5 mg/L [5]: 108 ± 1.1%; viability at 72 h, 25 mg/L [5]: 87.9 ± 1.7%; viability at 72 h, 50 mg/L [5]: 73.8 ± 1.9%; zone of inhibition at 100 µg/disc [7]: 18 mm; zone of inhibition at 0.4 mg/disc [15]: 14 mm; zone of inhibition at 0.4 mg/disc [16]: 15 mm; zone of inhibition at 0.4 mg/disc [17]: 14 mm; zone of inhibition at 300 µg/disc [19]: 16 mm |
